The text below walks through data of patent publication US10662164B2, “Non-beta lactam antibiotics” (University of Notre Dame du Lac, priority 2014, dated 2020).

Assay [1] has as its system E. faecium 106 (Van R). The assay can be described thus: MIC determination. As to conditions: Enterococcus faecium. Type of assay: cell-based. From the text:
(§1) The ESKAPE organisms (E. faecium NCTC (ATCC 19734), S. aureus ATCC 29213, K. pneumonia ATCC 700603, A. baumannii ATCC 17961, P. aeruginosa ATCC 17853, E. aerogenes ATCC 35029) and E. coli ATCC 25922) in the initial screen, S. aureus ATCC 27660, S. epidermis ATCC 35547, S. haemolyticus ATCC 29970, S. oralis ATCC 9811, S. pyogenes ATCC 49399, B. cereus ATCC 13061, B. licheniformis ATCC 12759, and E. faecalis ATCC 29212 were purchased from the American Type Culture Collection (Manassas, Va., USA). S. aureus strains NRS100, NRS119, NRS120, VRS1, and VRS2 were obtained from the Network on Antimicrobial Resistance in Staphylococcus aureus (Chantilly, Va., USA). E. faecalis strains 201 and 99, and E. faecium strains 119-39A and 106 were collected from Wayne State University School of Medicine.
(§2) The procedure for MIC determination was the same as previously reported (Tran et al., Am. J. Clin. Dermatol. 2015; doi 10.1007/S40257-015-0125-9).

The subject of assay [2] is E. faecium 119-39A (Van S). The assay can be described thus: MIC determination. It counts as cell-based. As to conditions: Enterococcus faecium.
From the text: as §1, §2

The subject of assay [3] is S. epidermis ATCC 35547. The assay can be described thus: MIC determination. Type of assay: cell-based.
From the text: as §1, §2

The next assay has as its system S. oralis ATCC 9811. The assay can be described thus: MIC determination. Type of assay: cell-based. As to conditions: Streptococcus oralis, ATCC9811.
From the text: as §1, §2

Another assay relates to S. pyogenes ATCC 49399. Description: MIC determination. Type of assay: cell-based. Particulars: Streptococcus pyogenes, ATCC49399.
From the text: as §1, §2

The next assay relates to E. faecium NCTC 7171. The assay can be described thus: MIC determination. As to conditions: Enterococcus faecium, NCTC7171. It counts as cell-based, Enterococcus faecium.
The next assay relates to S. aureus VRS1. Particulars: vancomycin, data from reference 10; Table 5; cited from earlier work.
Assay [4] deals with S. epidermis ATCC 35547. As to conditions: vancomycin, data from reference 10; Table 5; cited from earlier work.
In assay [5] the test system is E. faecium 119-39A (Van S). Particulars: vancomycin, data from reference 10; Table 5; cited from earlier work.
Assay [6] has as its system E. faecium 106 (Van R). Particulars: vancomycin, data from reference 10; Table 5; cited from earlier work.
For a further assay, the system named is E. faecium C68. Particulars: vancomycin, data from reference 12; Table 5; cited from earlier work.

In brackets after ≈: the same amount, converted by molar mass. Like-named read-outs stand apart in the source and are kept apart here. Marks after values point to notes of the source that are not given here.

Take `CN[C@H](CC(C)C)C(=O)N[C@H]1C(=O)N[C@@H](CC(N)=O)C(=O)N[C@H]2C(=O)N[C@H]3C(=O)N[C@H](C(=O)N[C@H](C(=O)O)c4cc(O)cc(O)c4-c4cc3ccc4O)[C@H](O)c3ccc(c(Cl)c3)Oc3cc2cc(c3O[C@@H]2O[C@H](CO)[C@@H](O)[C@H](O)[C@H]2O[C@H]2C[C@](C)(N)[C@H](O)[C@H](C)O2)Oc2ccc(cc2Cl)[C@H]1O` [vancomycin, reference compound]: the MIC in the assay with E. faecium 106 (Van R) [1] worked out at 256 mg/L (≈ 177 µM); in assay [2], 0.5 mg/L (≈ 0.345 µM); in the assay on S. epidermis ATCC 35547 [3] it was 16 mg/L (≈ 11 µM); with S. oralis ATCC 9811, 0.5 mg/L (≈ 0.345 µM); in the assay with S. pyogenes ATCC 49399 it was 0.6 mg/L (≈ 0.414 µM); against E. faecium NCTC 7171, 0.5 mg/L (≈ 0.345 µM). For the same molecule, the MIC is 512 mg/L (≈ 353 µM) in the assay with S. aureus VRS1; 16 mg/L (≈ 11 µM) in the assay with S. epidermis ATCC 35547 [4]; 0.5 mg/L (≈ 0.345 µM) in [5]; 256 mg/L (≈ 177 µM) in the assay with E. faecium 106 (Van R) [6]; 64^k μg/mL in the assay on E. faecium C68.
